The record followed here is patent publication US9073918B2, “Pyrazolo[4,3-b]pyridine-7-amine inhibitors of ALK5” (Takeda Pharmaceutical Company Limited, priority 2010, dated 2015).

This assay concerns the target T1, TGF-β R1 ALK5 (Homo sapiens, UniProt P36897).
T1 construct: purchased Invitrogen PV5837
T1 sequence (P36897 34-503): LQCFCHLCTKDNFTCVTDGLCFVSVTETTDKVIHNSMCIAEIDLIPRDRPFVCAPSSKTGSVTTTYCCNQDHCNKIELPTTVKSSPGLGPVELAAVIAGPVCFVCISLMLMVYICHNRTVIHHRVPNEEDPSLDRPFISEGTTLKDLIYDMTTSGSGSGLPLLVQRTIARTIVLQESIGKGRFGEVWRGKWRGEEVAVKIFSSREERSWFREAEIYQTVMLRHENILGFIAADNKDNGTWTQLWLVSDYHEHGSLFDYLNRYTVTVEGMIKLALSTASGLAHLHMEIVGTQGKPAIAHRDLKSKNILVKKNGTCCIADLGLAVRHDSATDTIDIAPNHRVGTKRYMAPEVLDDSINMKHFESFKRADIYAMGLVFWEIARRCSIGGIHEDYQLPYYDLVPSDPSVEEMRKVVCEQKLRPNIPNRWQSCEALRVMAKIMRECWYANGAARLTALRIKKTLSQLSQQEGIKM
The assay can be described thus: In vitro inhibition of ALK5 (LanthaScreen activity assay, TR-FRET). In kind it is biochemical. The protocol:
Test compounds were screened for TGF-β R1 ALK5 inhibition by use of a LanthaScreen™ activity assay (PV5837 Invitrogen, Invitrogen Corp. Madison, Wis.).
In brief, the assay procedure was as follows:
Solutions of test compounds were prepared in DMSO and diluted two-fold serially.
Assays were incubated for 90 minutes at room temperature and then quenched by the addition of 60 mM EDTA and 8 nM Terbium labeled anti-pSMAD3 Antibody (M4337 from Invitrogen) giving a final concentration of 15 mM EDTA and 2 nM Terbium labeled anti-pSMAD3 Antibody. Phosphorylated peptide product was quantified by measuring an increase in TR-FRET on a BMG LABTECH PHERA star plus. Response is defined as the ratio of Channel A/Channel B. The response of a blank (uninhibited) using vehicle alone is also determined. Enzyme activity was defined as the response of uninhibited enzyme activity minus the response of assays containing no enzyme. The percent inhibition of ALK5 at a given compound concentration is defined as: 100%×[1−(response compound/response blank)]
where response compound is defined as the enzyme activity in the presence of test compound and response blank is defined as the uninhibited enzyme activity. The pIC50 value (negative log of the molar concentration of the compound that produces 50% inhibition) of a test compound is calculated by non-linear least squares curve fitting of the equation: Percent Inhibition=100%/(1+(10−pIC50/10 log [I])).
Where inhibition was measured in multiple experiments the value in Table 1 is an average. N.T. means not tested.

As a reminder, the IC50 is the midpoint of a concentration-inhibition curve. `Cc1cnc(-c2cc(Cl)ccc2F)nc1Nc1ccnc2cnn(CC(N)=O)c12` [Example 3, 2-(7-(2-(5-chloro-2-fluorophenyl)-5-methylpyrimidin-4-ylamino)-1H-pyrazolo[4,3-b]pyridin-1-yl)acetamide]: it took 6.31 nM to reach half-maximal inhibition (IC50). With `Cc1cnc(-c2cc(Cl)ccc2F)nc1Nc1ccnc2cn(CC(N)=O)nc12` [Example 4, 2-(7-(2-(5-chloro-2-fluorophenyl)-5-methylpyrimidin-4-ylamino)-2H-pyrazolo[4,3-b]pyridin-2-yl)acetamide], the IC50 was 6.31 nM.

In the case of `Cc1ccc(F)c(-c2cc(Nc3ccnc4cn(CC(C)(C)O)nc34)c(C)cn2)n1` [Example 8, 1-(7-(3′-fluoro-5,6′-dimethyl-2,2′-bipyridin-4-ylamino)-2H-pyrazolo[4,3-b]pyridin-2-yl)-2-methylpropan-2-ol], inhibition was half-maximal at 251 nM (IC50). `Cc1ccc(F)c(-c2cc(Nc3ccnc4cn(CCO)nc34)c(C)cn2)n1` [Example 9, 2-(7-(3′-fluoro-5,6′-dimethyl-2,2′-bipyridin-4-ylamino)-2H-pyrazolo[4,3-b]pyridin-2-yl)ethanol]: the 50% inhibitory concentration (IC50) is 7.94 nM. The compound `Cc1ccc(F)c(-c2cc(Nc3ccnc4cn[nH]c34)c(C)cn2)n1` [Example 11, N-(3′-fluoro-5,6′-dimethyl-2,2′-bipyridin-4-yl)-1H-pyrazolo[4,3-b]pyridin-7-amine] showed an IC50 of 2.51 nM. Compound `Cc1cccc(-c2cc(Nc3ccnc4cn(CC(N)=O)nc34)c(C)cn2)n1` [Example 12, 2-(7-(5,6′-dimethyl-2,2′-bipyridin-4-ylamino)-2H-pyrazolo[4,3-b]pyridin-2-yl)acetamide] gave a 50% inhibitory concentration (IC50) of 31.6 nM. Compound `Cc1ccc(F)c(-c2cc(Nc3ccnc4cnn(CC(N)=O)c34)c(C)cn2)n1` [Example 13, 2-(7-(3′-fluoro-5,6′-dimethyl-2,2′-bipyridin-4-ylamino)-1H-pyrazolo[4,3-b]pyridin-1-yl)acetamide] gave an IC50 of 2.51 nM. Next, `Cc1ccc(F)c(-c2cc(Nc3ccnc4cn(CC(N)=O)nc34)c(C)cn2)n1` [Example 14, 2-(7-(3′-fluoro-5,6′-dimethyl-2,2′-bipyridin-4-ylamino)-2H-pyrazolo[4,3-b]pyridin-2-yl)acetamide]: 10 nM; `Fc1ccc(Cl)cc1-c1cc(Nc2ccnc3cn(CC4CCOCC4)nc23)ccn1` [Example 23, N-(2-(5-chloro-2-fluorophenyl)pyridin-4-yl)-2-((tetrahydro-2H-pyran-4-yl)methyl)-2H-pyrazolo[4,3-b]pyridin-7-amine]: 316 nM; `Fc1ccc(Cl)cc1-c1cc(Nc2ccnc3cnn(CC4CCOCC4)c23)ccn1` [Example 24, N-(2-(5-chloro-2-fluorophenyl)pyridin-4-yl)-1-((tetrahydro-2H-pyran-4-yl)methyl)-1H-pyrazolo[4,3-b]pyridin-7-amine]: 1580 nM. Consider `Fc1ccc(Cl)cc1-c1cc(Nc2ccnc3cn(CC4CCCO4)nc23)ccn1` (stereo not drawn) [Example 25, N-(2-(5-chloro-2-fluorophenyl)pyridin-4-yl)-2-((tetrahydrofuran-2-yl)methyl)-2H-pyrazolo[4,3-b]pyridin-7-amine], for which half-maximal inhibition (IC50) was put at 2510 nM.

`Fc1ccc(Cl)cc1-c1cc(Nc2ccnc3cnn(CC4CCNCC4)c23)ccn1` [Example 26, N-(2-(5-chloro-2-fluorophenyl)pyridin-4-yl)-1-(piperidin-4-ylmethyl)-1H-pyrazolo[4,3-b]pyridin-7-amine] showed a concentration for half-maximal inhibition (IC50) of 2510 nM.

The compound `NC(=O)n1ncc2nccc(Nc3ccnc(-c4cc(Cl)ccc4F)c3)c21` [Example 30, 7-(2-(5-chloro-2-fluorophenyl)pyridin-4-ylamino)-1H-pyrazolo[4,3-b]pyridine-1-carboxamide] gave an IC50 of 50.1 nM.

On to `CN(C)C(=O)Cn1ncc2nccc(Nc3ccnc(-c4cc(Cl)ccc4F)c3)c21` [Example 38, 2-(7-(2-(5-chloro-2-fluorophenyl)pyridin-4-ylamino)-1H-pyrazolo[4,3-b]pyridin-1-yl)-N,N-dimethylacetamide], for which the IC50 was 251 nM. Compound `O=C1NCCN1CCn1ncc2nccc(Nc3ccnc(-c4cc(Cl)ccc4F)c3)c21` [Example 41, 1-(2-(7-(2-(5-chloro-2-fluorophenyl)pyridin-4-ylamino)-1H-pyrazolo[4,3-b]pyridin-1-yl)ethyl)imidazolidin-2-one] had an IC50 of 316 nM. `O=C(Cn1ncc2nccc(Nc3ccnc(-c4cc(Cl)ccc4F)c3)c21)N1CCOCC1` [Example 42, 2-(7-(2-(5-chloro-2-fluorophenyl)pyridin-4-ylamino)-1H-pyrazolo[4,3-b]pyridin-1-yl)-1-morpholinoethanone]: the half-maximal inhibitory concentration (IC50) was 316 nM.

Compound `NC(=O)Cn1ncc2nccc(Nc3ccnc(-c4cc(Cl)ccc4F)c3)c21` [Example 44, 2-(7-(2-(5-chloro-2-fluorophenyl)pyridin-4-ylamino)-1H-pyrazolo[4,3-b]pyridin-1-yl)acetamide] showed an IC50 of 31.6 nM. The compound `CC(C(N)=O)n1cc2nccc(Nc3ccnc(-c4cc(Cl)ccc4F)c3)c2n1` (stereo not drawn) [Example 45, 2-(7-(2-(5-chloro-2-fluorophenyl)pyridin-4-ylamino)-2H-pyrazolo[4,3-b]pyridin-2-yl)propanamide] showed an IC50 of 50.1 nM.

As for `CCS(=O)(=O)n1cc2nccc(Nc3cc(-c4cc(Cl)ccc4F)ncc3C)c2n1` [Example 56, N-(2-(5-chloro-2-fluorophenyl)-5-methylpyridin-4-yl)-2-(ethylsulfonyl)-2H-pyrazolo[4,3-b]pyridin-7-amine], the midpoint of inhibition, the IC50, lay at 12.6 nM.

`Cc1cc(Nc2ccnc3cn[nH]c23)cc(-c2cc(Cl)ccc2F)n1` [Example 57, N-(2-(5-chloro-2-fluorophenyl)-6-methylpyridin-4-yl)-1H-pyrazolo[4,3-b]pyridin-7-amine] gave an IC50 of 39.8 nM. The result for `CCNC(=O)n1ncc2nccc(Nc3cc(C)nc(-c4cc(Cl)ccc4F)c3)c21` [Example 59, 7-(2-(5-chloro-2-fluorophenyl)-6-methylpyridin-4-ylamino)-N-ethyl-1H-pyrazolo[4,3-b]pyridine-1-carboxamide] reads 316 nM; that for `CCS(=O)(=O)n1cc2nccc(Nc3cc(C)nc(-c4cc(Cl)ccc4F)c3)c2n1` [Example 61, N-(2-(5-chloro-2-fluorophenyl)-6-methylpyridin-4-yl)-2-(ethylsulfonyl)-2H-pyrazolo[4,3-b]pyridin-7-amine], 251 nM; that for `CCNC(=O)n1ncc2nccc(Nc3ccnc(-c4cc(Cl)c(F)cc4F)c3)c21` [Example 62, 7-(2-(5-chloro-2,4-difluorophenyl)pyridin-4-ylamino)-N-ethyl-1H-pyrazolo[4,3-b]pyridine-1-carboxamide], 12.6 nM.

In turn, `Cc1ccc(F)c(-c2cc(Nc3ccnc4c[nH]nc34)ccn2)n1` [Example 64, N-(3′-fluoro-6′-methyl-2,2′-bipyridin-4-yl)-2H-pyrazolo[4,3-b]pyridin-7-amine] gave a 50% inhibitory concentration (IC50) of 126 nM.

As to `Cc1ccc(F)c(-c2cc(Nc3ccnc4cn(CCO)nc34)ccn2)n1` [Example 72, 2-(7-(3′-fluoro-6′-methyl-2,2′-bipyridin-4-ylamino)-2H-pyrazolo[4,3-b]pyridin-2-yl)ethanol], the IC50 is 158 nM.

On to `CNC(=O)n1ncc2nccc(Nc3ccnc(-c4nc(C)ccc4F)c3)c21` [Example 74, 7-(3′-fluoro-6′-methyl-2,2′-bipyridin-4-ylamino)-N-methyl-1H-pyrazolo[4,3-b]pyridine-1-carboxamide], for which the IC50 was 39.8 nM. The compound `CNC(=O)n1ncc2nccc(Nc3ccnc(-c4cc(C)ccc4F)c3)c21` [Example 75, 7-(2-(2-fluoro-5-methylphenyl)pyridin-4-ylamino)-N-methyl-1H-pyrazolo[4,3-b]pyridine-1-carboxamide] had a half-maximal inhibitory concentration (IC50) of 25.1 nM.

Take `Cc1ccc(F)c(-c2cc(Nc3ccnc4cnn(C5CCN(S(C)(=O)=O)CC5)c34)ccn2)c1` [Example 78, N-(2-(2-fluoro-5-methylphenyl)pyridin-4-yl)-1-(1-(methylsulfonyl)piperidin-4-yl)-1H-pyrazolo[4,3-b]pyridin-7-amine]: the concentration for half-maximal inhibition (IC50) is 631 nM. The result for `CCNC(=O)n1ncc2nccc(Nc3ccnc(-c4cc(C)ccc4F)c3)c21` [Example 80, N-ethyl-7-(2-(2-fluoro-5-methylphenyl)pyridin-4-ylamino)-1H-pyrazolo[4,3-b]pyridine-1-carboxamide] reads 31.6 nM. The compound `Cc1ccc(F)c(-c2cc(Nc3ccnc4cn(CC(N)=O)nc34)ccn2)n1` [Example 84, 2-(7-(3′-fluoro-6′-methyl-2,2′-bipyridin-4-ylamino)-2H-pyrazolo[4,3-b]pyridin-2-yl)acetamide] showed a half-inhibitory concentration (IC50) of 31.6 nM.
